The results in this text go back to patent US11370794B2, “Toll-like receptor antagonist compounds and methods of use” (Dynavax Technologies Corporation, priority 2016, dated 2022).

Read-outs that look alike come from different tables or passages of the source.

In one test the target is T1, human TLR8 (Homo sapiens, UniProt Q9NR97).
T1 construct: endogenous in cells; host or cells: primary human monocytes (CD14 microbeads) from buffy coats of healthy donors
T1 sequence (Q9NR97 27-1041): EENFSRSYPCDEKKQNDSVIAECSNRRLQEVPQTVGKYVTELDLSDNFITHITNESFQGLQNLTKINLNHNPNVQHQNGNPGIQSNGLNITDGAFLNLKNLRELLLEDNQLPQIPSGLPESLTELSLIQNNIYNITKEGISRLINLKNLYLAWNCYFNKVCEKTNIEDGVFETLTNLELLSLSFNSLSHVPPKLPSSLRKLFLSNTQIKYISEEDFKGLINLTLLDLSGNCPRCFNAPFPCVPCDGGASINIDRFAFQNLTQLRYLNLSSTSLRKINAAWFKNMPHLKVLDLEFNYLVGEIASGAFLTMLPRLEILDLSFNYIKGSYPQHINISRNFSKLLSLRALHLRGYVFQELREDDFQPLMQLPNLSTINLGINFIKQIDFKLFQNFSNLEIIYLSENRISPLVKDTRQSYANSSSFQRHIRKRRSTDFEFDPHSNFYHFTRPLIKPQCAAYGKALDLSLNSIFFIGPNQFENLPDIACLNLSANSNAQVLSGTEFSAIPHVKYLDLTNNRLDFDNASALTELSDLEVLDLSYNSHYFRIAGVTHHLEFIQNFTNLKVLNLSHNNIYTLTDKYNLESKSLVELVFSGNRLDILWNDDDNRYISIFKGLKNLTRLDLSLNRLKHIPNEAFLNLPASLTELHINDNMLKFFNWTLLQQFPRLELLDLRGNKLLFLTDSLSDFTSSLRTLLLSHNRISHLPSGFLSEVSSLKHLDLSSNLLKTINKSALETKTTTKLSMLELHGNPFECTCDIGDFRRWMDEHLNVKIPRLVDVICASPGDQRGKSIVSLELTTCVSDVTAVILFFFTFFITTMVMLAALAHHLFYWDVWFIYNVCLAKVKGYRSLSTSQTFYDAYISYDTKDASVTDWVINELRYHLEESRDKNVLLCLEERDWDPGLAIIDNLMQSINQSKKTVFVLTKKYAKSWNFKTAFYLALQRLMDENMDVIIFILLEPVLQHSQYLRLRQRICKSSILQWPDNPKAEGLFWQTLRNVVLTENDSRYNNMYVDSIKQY
The test can be described thus: Inhibition of human TLR8 in human monocytes (TNF-alpha / IL-1 beta ELISA). It counts as cell-based. To be noted: human monocytes, agonist ORN8L 100 μg/mL, 24 hours. The source says:
Example B2—Inhibition of Human TLR8 in Human Monocytes
When placed in cell culture, engagement of TLR8 with an agonist leads to expression and release of cytokines into the media.
Buffy coats from anonymized, healthy human donors. CD14 microbeads (Milteny Cat. No. 130-050-201). TLR8 agonist, (5′-M2UGCUGCUUGUG-/glycerol/-GUGUUCGUCGUM2-5′ with M2=C6-linker, ORN8L, RNA oligonucleotide (Chem Genes Corp.). Human TNF-alpha ELISA kit (Mabtech Cat. No. 3510-1H-20). Human interleukin (IL)-1 beta ELISA kit (Mabtech Cat. No. 3415-1H-20).
Following isolation of monocytes from buffy coats, human monocytes were plated into 96 well plates at approximately 200,000 cells per well. Test compounds were serially diluted and added to the plates. Immediately after adding test compounds, the TLR8 agonist (ORN8L, RNA oligonucleotide) was added to a final concentration of 100 μg/mL. Cells were incubated for 24 hours at 37° C. A portion of the media supernatant was analyzed for the presence of TNF-alpha and/or IL-1 beta using ELISA kits. The amount of TNF-alpha or IL-1 beta produced is a reflection of the amount of TLR8-dependent receptor activity. The IC50 values (the concentration at which 50% of the TLR8-dependent receptor activity is reduced) were calculated based upon the TLR8-dependent receptor activity over a range of different test compound concentrations.

Another test has as its target T2, human TLR9 (Homo sapiens, UniProt Q9NR96).
T2 construct: endogenous in cells; host or cells: primary human B cells (CD19 microbeads) from buffy coats of healthy donors
T2 sequence (Q9NR96 26-1032): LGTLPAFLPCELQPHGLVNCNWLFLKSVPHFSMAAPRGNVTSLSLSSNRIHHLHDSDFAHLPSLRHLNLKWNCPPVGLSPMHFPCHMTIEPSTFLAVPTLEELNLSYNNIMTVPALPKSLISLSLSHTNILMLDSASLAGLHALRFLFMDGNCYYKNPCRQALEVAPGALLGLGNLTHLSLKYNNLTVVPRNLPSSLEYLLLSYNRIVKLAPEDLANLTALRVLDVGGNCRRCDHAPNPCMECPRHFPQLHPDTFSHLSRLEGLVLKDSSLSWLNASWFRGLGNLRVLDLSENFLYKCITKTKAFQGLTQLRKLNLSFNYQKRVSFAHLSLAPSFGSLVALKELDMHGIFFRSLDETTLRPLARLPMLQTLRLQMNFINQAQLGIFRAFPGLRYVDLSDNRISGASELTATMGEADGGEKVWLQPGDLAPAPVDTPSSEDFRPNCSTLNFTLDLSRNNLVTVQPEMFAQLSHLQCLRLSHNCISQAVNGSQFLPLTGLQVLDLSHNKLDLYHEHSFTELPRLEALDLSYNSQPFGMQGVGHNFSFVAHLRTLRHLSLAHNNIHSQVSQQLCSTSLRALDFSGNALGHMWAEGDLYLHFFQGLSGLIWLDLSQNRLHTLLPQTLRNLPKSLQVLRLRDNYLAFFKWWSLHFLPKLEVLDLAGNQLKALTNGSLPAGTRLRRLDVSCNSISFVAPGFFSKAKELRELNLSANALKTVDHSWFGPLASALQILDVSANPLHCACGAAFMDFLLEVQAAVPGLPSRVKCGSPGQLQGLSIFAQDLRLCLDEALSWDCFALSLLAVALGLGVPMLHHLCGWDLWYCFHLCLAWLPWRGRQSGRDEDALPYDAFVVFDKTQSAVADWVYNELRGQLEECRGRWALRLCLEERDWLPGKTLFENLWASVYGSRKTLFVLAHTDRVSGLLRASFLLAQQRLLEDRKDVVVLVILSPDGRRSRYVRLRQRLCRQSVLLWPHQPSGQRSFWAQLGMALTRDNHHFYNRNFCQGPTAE
The test can be described thus: Inhibition of human TLR9 in human B cells (IL-6 ELISA). It is filed as cell-based. To be noted: for IC50: human B cells, agonist 1018 ISS 1 μM; for inhibits TLR9-dependent responses (in words): summary statement of the description. On the procedure:
Example B3—Inhibition of Human TLR9 in Human B Cells
When placed in cell culture, engagement of TLR9 with an agonist leads to expression and release of cytokines into the media.
Buffy coats from anonymized, healthy human donors. CD19 microbeads (Miltenyi Cat. No. 130-050-301). TLR9 agonist, 1018 ISS, CpG-containing DNA oligonucleotide. Human interleukin (IL)-6 ELISA kit (Mabtech Cat. No. 3460-1H-20).
Following isolation of […] from buffy coats, human B cells were plated into 96 well plates at approximately 300,000 cells per well. Test compounds were serially diluted and added to the plates. Test compounds were typically assayed using a concentration range from about 0.01 μM to about 10 μM. Certain test compounds were further assayed in an expanded dilution series using a compound concentration range from about 0.001 μM to about 30 μM. Immediately after adding test compounds, the TLR9 agonist (1018 ISS, CpG-containing DNA oligonucleotide) was added to a final concentration of 1 μM. Cells were incubated for 48 hours at 37° C. A portion of the media supernatant was analyzed for the presence of IL-6 using ELISA kits. The amount of IL-6 produced is a reflection of the amount of TLR9-dependent receptor activity. The IC50 values (the concentration at which 50% of the TLR9-dependent receptor activity is reduced) were calculated based upon the TLR9-dependent receptor activity over a range of different test compound concentrations.
In general terms: ELISA stands for enzyme-linked immunosorbent assay.

Where [1] appears, read: IL-1 beta readout, read-out: Human TLR8 IC50 IL-1b.
Where [2] appears, read: TNF-alpha readout, read-out: Human TLR8 IC50 TNF-a.
[3] abbreviates: IL-6 readout, 48 hours, range about 0.01 to 10 μM, read-out: Human TLR9 IC50.
Where [4] appears, read: IL-6, 48 hours, expanded dilution series about 0.001 to 30 μM, read-out: Human TLR9 IC50, expanded dilution series.

Broadly, the IC50 is the concentration that inhibits the measured activity by half. Regarding `Cc1ccc(-n2cc3cnnc(N4CCC(C(=O)NCCCN(C)C)CC4)c3n2)cc1` [Compound No. 29, N-(3-(dimethylamino)propyl)-1-(2-(p-tolyl)-2H-pyrazolo[3,4-d]pyridazin-7-yl)piperidine-4-carboxamide], the half-maximal inhibitory concentration (IC50) at human TLR8 (setting [1]) was 1610 nM; on human TLR8 (setting [2]), over 10000 nM; on human TLR9 (setting [3]) it was 7 nM. For the same compound, the “inhibits TLR9-dependent responses (in words)” value on human TLR9 is “inhibit”.

As for `Cc1ccc(-n2nc3c(N4CCC(C(=O)N5CCC(N(C)C)C5)CC4)nnc(C)c3c2C)cc1` (stereo not drawn) [compound 44, (1-(3,4-dimethyl-2-(p-tolyl)-2H-pyrazolo[3,4-d]pyridazin-7-yl)piperidin-4-yl)(3-(dimethylamino)pyrrolidin-1-yl)methanone], the IC50 on human TLR8 (setting [2]) is at least 20000 nM; at human TLR9 (setting [3]), 202 nM.

Take `Cc1ccc(-n2nc3c(N4CCC(C(=O)NC5CCN(C)CC5)CC4)nnc(C)c3c2C)cc1` [compound 18, 1-(3,4-dimethyl-2-(p-tolyl)-2H-pyrazolo[3,4-d]pyridazin-7-yl)-N-(1-methylpiperidin-4-yl)piperidine-4-carboxamide]: the 50% inhibitory concentration (IC50) at human TLR8 (setting [1]) was over 10000 nM; on human TLR8 (setting [2]), over 10000 nM; on human TLR9 (setting [3]) it was 137 nM.

On to `Cc1ccc(-n2nc3c(N4CCC(C(=O)NCCCN5CCC5)CC4)nnc(C)c3c2C)cc1` [Compound No. 11, N-(3-(azetidin-1-yl)propyl)-1-(3,4-dimethyl-2-(p-tolyl)-2H-pyrazolo[3,4-d]pyridazin-7-yl)piperidine-4-carboxamide], for which the IC50 is over 10000 nM on human TLR8 (setting [1]), over 10000 nM at human TLR8 (setting [2]) and 379 nM on human TLR9 (setting [3]).

With `Cc1ccc(-n2nc3c(N4CCC(C(=O)N5CCC(N6CCC6)CC5)CC4)nnc(C)c3c2C)cc1` [compound 65, (4-(azetidin-1-yl)piperidin-1-yl)(1-(3,4-dimethyl-2-(p-tolyl)-2H-pyrazolo[3,4-d]pyridazin-7-yl)piperidin-4-yl)methanone], the figures for the IC50 at human TLR8 (setting [2]) and at human TLR9 (setting [3]) were 1850 nM and 10 nM, respectively.

As for `Cc1ccc(-n2nc3c(N4CCC(C(=O)NCCCCCN(C)C)CC4)nnc(C)c3c2C)cc1` [compound 32, 1-(3,4-dimethyl-2-(p-tolyl)-2H-pyrazolo[3,4-d]pyridazin-7-yl)-N-(5-(dimethylamino)pentyl)piperidine-4-carboxamide], the IC50 was over 10000 nM at human TLR8 (setting [1]), over 10000 nM on human TLR8 (setting [2]) and 55 nM at human TLR9 (setting [3]).

With `Cc1ccc(-n2nc3c(N4CCC(C(=O)N5CC[C@H](CN(C)C)C5)CC4)nnc(C)c3c2C)cc1` [Compound 45a, (R)-(1-(3,4-dimethyl-2-(p-tolyl)-2H-pyrazolo[3,4-d]pyridazin-7-yl)piperidin-4-yl)(3-((dimethylamino)methyl)pyrrolidin-1-yl)methanone], on human TLR9, the “inhibits TLR9-dependent responses (in words)” value is recorded as “inhibit”.

For `Cc1ccc(-n2nc3c(N4CCCC(C(=O)NCCNc5ccccc5)C4)nnc(C)c3c2C)cc1` (stereo not drawn) [compound 58, 1-(3,4-dimethyl-2-(p-tolyl)-2H-pyrazolo[3,4-d]pyridazin-7-yl)-N-(2-(phenylamino)ethyl)piperidine-3-carboxamide], the IC50 at human TLR8 (setting [2]) was at least 20000 nM; at human TLR9 (setting [3]) it was 4820 nM.

For the compound `CNC(=O)C1CCN(c2nnc(C)c3c(C)n(-c4ccc(C)cc4)nc23)C1` (stereo not drawn) [compound 57, 1-(3,4-dimethyl-2-(p-tolyl)-2H-pyrazolo[3,4-d]pyridazin-7-yl)-N-methylpyrrolidine-3-carboxamide], the results for the concentration for half-maximal inhibition (IC50) at human TLR8 (setting [2]) and at human TLR9 (setting [3]) were at least 20000 nM and 9370 nM, respectively.

For the compound `Cc1ccc(-n2nc3c(N4CCC(C(=O)N5CCOCC5)CC4)nnc(C)c3c2C)cc1` [2-3], the IC50 at human TLR8 (setting [1]), at human TLR8 (setting [2]) and on human TLR9 (setting [3]) was over 10000 nM in each case.

In the case of `Cc1ccc(-n2nc3c(N4CCC(C(=O)N5CC[C@@H](CN(C)C)C5)CC4)nnc(C)c3c2C)cc1` [Compound 45b, (S)-(1-(3,4-dimethyl-2-(p-tolyl)-2H-pyrazolo[3,4-d]pyridazin-7-yl)piperidin-4-yl)(3-((dimethylamino)methyl)pyrrolidin-1-yl)methanone], the “inhibits TLR9-dependent responses (in words)” value at human TLR9 is “inhibit”.

Turning to `Cc1ccc(-n2nc3c(N4CCC(C)(C(=O)NCCCN(C)C)CC4)nnc(C)c3c2C)cc1` [compound 20, 1-(3,4-dimethyl-2-(p-tolyl)-2H-pyrazolo[3,4-d]pyridazin-7-yl)-N-(3-(dimethylamino)propyl)-4-methylpiperidine-4-carboxamide], the IC50 was 24 nM on human TLR9 (setting [4]) and 18 nM on human TLR9 (setting [3]).

As for `Cc1ccc(-n2cc3cncc(N4CCC(C(=O)NCCCN(C)C)CC4)c3n2)cc1` [Compound No. 55, N-(3-(dimethylamino)propyl)-1-(2-(p-tolyl)-2H-pyrazolo[4,3-c]pyridin-7-yl)piperidine-4-carboxamide], the IC50 on human TLR9 (setting [4]) is 9 nM; on human TLR9 (setting [3]), 7 nM.
